Results: patent publication US20200187502A1, “MICROBIOCIDAL OXADIAZOLE DERIVATIVES” (SYNGENTA PARTICIPATIONS AG, priority 2017, published 2020)

Assays:
[1] = test system: Glomerella lacenarium (Colletotrichum lacenarium); assay: Fungicidal activity, liquid culture, cucumber preventative (anthracnose); type: cell-based; details: 20 ppm in the applied formulation, liquid culture in PDB, inhibition of growth measured photometrically 3 to 4 days after application, compared to untreated control, read-out: disease control
Procedure: Mycelia fragments or conidia suspensions of a fungus prepared either freshly from liquid cultures of the fungus or from cryogenic storage, are directly mixed into nutrient broth. DMSO solutions of the test compound (max. 10 mg/ml) are diluted with 0.025% Tween20 by a factor of 50 and 10 μl of this solution is pipetted into a microtiter plate (96-well format). The nutrient broth containing the fungal spores/mycelia fragments is then added to give an end concentration of the tested compound. The test plates are incubated in the dark at 24° C. and 96% relative humidity. The inhibition of fungal growth is determined photometrically after 2 to 7 days, depending on the pathosystem, and percent antifungal activity relative to the untreated check is calculated.
Conidia of the fungus from cryogenic storage are directly mixed into nutrient broth (PDB—potato dextrose broth). After placing a (DMSO) solution of test compound into a microtiter plate (96-well format), the nutrient broth containing the fungal spores is added. The test plates are incubated at 24° C. and the inhibition of growth is measured photometrically 3 to 4 days after application.
The following compounds at 20 ppm in the applied formulation give at least 80% disease control in this test when compared to untreated control under the same conditions, which show extensive disease development.

[2] = test system: Puccinia recondita f. Sp. Tritici; assay: Fungicidal activity, wheat leaf disc preventative (brown rust); type: in vivo; details: foliar, 200 ppm in the applied formulation, wheat leaf segments cv. Kanzler, compared to untreated control, 7 to 9 days after application, read-out: disease control
Procedure: Leaf disks or leaf segments of various plant species are cut from plants grown in a greenhouse. The cut leaf disks or segments are placed in multiwell plates (24-well format) onto water agar. The leaf disks are sprayed with a test solution before (preventative) or after (curative) inoculation. Compounds to be tested are prepared as DMSO solutions (max. 10 mg/ml) which are diluted to the appropriate concentration with 0.025% Tween20 just before spraying. The inoculated leaf disks or segments are incubated under defined conditions (temperature, relative humidity, light, etc.) according to the respective test system. A single evaluation of disease level is carried out 3 to 14 days after inoculation, depending on the pathosystem. Percent disease control relative to the untreated check leaf disks or segments is then calculated.
Wheat leaf segments cv. Kanzler were placed on agar in multiwell plates (24-well format) and sprayed with the formulated test compound diluted in water. The leaf disks were inoculated with a spore suspension of the fungus 1 day after application. The inoculated leaf segments were incubated at 19° C. and 75% relative humidity (rh) under a light regime of 12 hours light/12 hours darkness in a climate cabinet and the activity of a compound was assessed as percent disease control compared to untreated when an appropriate level of disease damage appears in untreated check leaf segments (7 to 9 days after application).
The following compounds at 200 ppm in the applied formulation give at least 80% disease control in this test when compared to untreated control leaf disks under the same conditions, which show extensive disease development.

| SMILES | inhibition of growth at 20 ppm [1] [%] | pest or weed control at 200 ppm [2] [%] |
| --- | --- | --- |
| CON(Cc1ccc(-c2noc(C(F)(F)F)n2)s1)S(=O)(=O)c1ccn(C)n1 [Compound 1.33, N-methoxy-1-methyl-N-[[5-[5-(trifluoromethyl)-1,2,4-oxadiazol-3-yl]-2-thienyl]methyl]pyrazole-3-sulfonamide] | ≥ 80 | ≥ 80 |
| CON(Cc1ccc(-c2noc(C(F)(F)F)n2)s1)S(=O)(=O)C1CC1 [Compound 1.37, N-methoxy-N-[[5-[5-(trifluoromethyl)-1,2,4-oxadiazol-3-yl]-2-thienyl]methyl]cyclopropanesulfonamide] | ≥ 80 | ≥ 80 |
| CON(Cc1ccc(-c2noc(C(F)(F)F)n2)s1)S(=O)(=O)N(C)C [Compound 1.43, N-(dimethylsulfamoyl)-N-methoxy-1-[5-[5-(trifluoromethyl)-1,2,4-oxadiazol-3-yl]-2-thienyl]methanamine] | ≥ 80 | ≥ 80 |
| COCC(=O)N(C)Cc1ccc(-c2noc(C(F)(F)F)n2)s1 [Compound 4.32, 2-methoxy-N-methyl-N-[[5-[5-(trifluoromethyl)-1,2,4-oxadiazol-3-yl]-2-thienyl]methyl]acetamide] | ≥ 80 | ≥ 80 |
| O=C(CC(F)(F)F)N(Cc1ccc(-c2noc(C(F)(F)F)n2)s1)C1CC1 [Compound 4.60, N-cyclopropyl-3,3,3-trifluoro-N-[[5-[5-(trifluoromethyl)-1,2,4-oxadiazol-3-yl]-2-thienyl]methyl]propanamide] | ≥ 80 | ≥ 80 |
| CC(=O)N(Cc1ccc(-c2noc(C(F)(F)F)n2)s1)C1CC1 [Compound 4.61, N-cyclopropyl-N-[[5-[5-(trifluoromethyl)-1,2,4-oxadiazol-3-yl]-2-thienyl]methyl]acetamide] | ≥ 80 | ≥ 80 |
| CC(=O)N(Cc1ccc(-c2noc(C(F)(F)F)n2)s1)OCC(F)F [Compound 4.69, N-(2,2-difluoroethoxy)-N-[[5-[5-(trifluoromethyl)-1,2,4-oxadiazol-3-yl]-2-thienyl]methyl]acetamide] | ≥ 80 | ≥ 80 |
| CN(Cc1ccc(-c2noc(C(F)(F)F)n2)s1)C(=O)c1ccccc1Cl [Compound 5.17, 2-chloro-N-methyl-N-[[5-[5-(trifluoromethyl)-1,2,4-oxadiazol-3-yl]-2-thienyl]methyl]benzamide] | ≥ 80 | ≥ 80 |
| CC(C)N(Cc1ccc(-c2noc(C(F)(F)F)n2)s1)C(=O)c1ccccc1Cl [Compound 5.26, 2-chloro-N-isopropyl-N-[[5-[5-(trifluoromethyl)-1,2,4-oxadiazol-3-yl]-2-thienyl]methyl]benzamide] | ≥ 80 | ≥ 80 |
| O=C(C1CCC1)N(Cc1ccc(-c2noc(C(F)(F)F)n2)s1)C1CC1 [Compound 5.38, N-cyclopropyl-N-[[5-[5-(trifluoromethyl)-1,2,4-oxadiazol-3-yl]-2-thienyl]methyl]cyclobutanecarboxamide] | ≥ 80 | ≥ 80 |
| O=C(CC1CC1)N(Cc1ccc(-c2noc(C(F)(F)F)n2)s1)OCC(F)F [Compound 5.45, 2-cyclopropyl-N-(2,2-difluoroethoxy)-N-[[5-[5-(trifluoromethyl)-1,2,4-oxadiazol-3-yl]-2-thienyl]methyl]acetamide] | ≥ 80 | ≥ 80 |
| O=C(C1CCOC1)N(Cc1ccc(-c2noc(C(F)(F)F)n2)s1)OCC(F)F (centres unmarked) [Compound 5.46, N-(2,2-difluoroethoxy)-N-[[5-[5-(trifluoromethyl)-1,2,4-oxadiazol-3-yl]-2-thienyl]methyl]tetrahydrofuran-3-carboxamide] | ≥ 80 | ≥ 80 |
| O=C(C1CCC1)N(Cc1ccc(-c2noc(C(F)(F)F)n2)s1)OCC(F)F [Compound 5.47, N-(2,2-difluoroethoxy)-N-[[5-[5-(trifluoromethyl)-1,2,4-oxadiazol-3-yl]-2-thienyl]methyl]cyclobutanecarboxamide] | ≥ 80 | ≥ 80 |
| O=C(C1CCCO1)N(Cc1ccc(-c2noc(C(F)(F)F)n2)s1)OCC(F)F (centres unmarked) [Compound 5.49, N-(2,2-difluoroethoxy)-N-[[5-[5-(trifluoromethyl)-1,2,4-oxadiazol-3-yl)-2-thienyl]methyl]tetrahydrofuran-2-carboxamide] | ≥ 80 | ≥ 80 |
| O=C(N(Cc1ccc(-c2noc(C(F)(F)F)n2)s1)C1CC1)N(CC(F)F)C1CC1 [Compound 5.60, 1,3-dicyclopropyl-1-(2,2-difluoroethyl)-3-[[5-[5-(trifluoromethyl)-1,2,4-oxadiazol-3-yl]-2-thienyl]methyl]urea] | ≥ 80 | ≥ 80 |
| CS(=O)(=O)N(Cc1ccc(-c2noc(C(F)(F)F)n2)s1)C1CC1 [Compound 6.1, N-cyclopropyl-N-[[5-[5-(trifluoromethyl)-1,2,4-oxadiazol-3-yl]-2-thienyl]methyl]methanesulfonamide] | ≥ 80 | ≥ 80 |
| CN(C)S(=O)(=O)N(Cc1ccc(-c2noc(C(F)(F)F)n2)s1)C1CC1 [Compound 6.2, N-(dimethylsulfamoyl)-N-[[5-[5-(trifluoromethyl)-1,2,4-oxadiazol-3-yl]-2-thienyl]methyl]cyclopropanamine] | ≥ 80 | ≥ 80 |
| CCN(Cc1ccc(-c2noc(C(F)(F)F)n2)s1)S(=O)(=O)Cc1ccccc1 [Compound 6.13, N-ethyl-1-phenyl-N-[[5-[5-(trifluoromethyl)-1,2,4-oxadiazol-3-yl]-2-thienyl]methyl]methanesulfonamide] | ≥ 80 | ≥ 80 |
| CCN(Cc1ccc(-c2noc(C(F)(F)F)n2)s1)S(=O)(=O)C1CC1 [Compound 6.19, N-ethyl-N-[[5-[5-(trifluoromethyl)-1,2,4-oxadiazol-3-yl]-2-thienyl]methyl]cyclopropanesulfonamide] | ≥ 80 | ≥ 80 |
| CCS(=O)(=O)N(C)Cc1ccc(-c2noc(C(F)(F)F)n2)s1 [Compound 6.25, N-methyl-N-[[5-[5-(trifluoromethyl)-1,2,4-oxadiazol-3-yl]-2-thienyl]methyl]ethanesulfonamide] | ≥ 80 | ≥ 80 |
| CN(C)S(=O)(=O)N(C)Cc1ccc(-c2noc(C(F)(F)F)n2)s1 [Compound 6.29, N-(dimethylsulfamoyl)-N-methyl-1-[5-[5-(trifluoromethyl)-1,2,4-oxadiazol-3-yl]-2-thienyl]methanamine] | ≥ 80 | ≥ 80 |
| CN(Cc1ccc(-c2noc(C(F)(F)F)n2)s1)S(=O)(=O)C1CC1 [Compound 6.30, N-methyl-N-[[5-[5-(trifluoromethyl)-1,2,4-oxadiazol-3-yl]-2-thienyl]methyl]cyclopropanesulfonamide] | ≥ 80 | ≥ 80 |
| CCCS(=O)(=O)N(C)Cc1ccc(-c2noc(C(F)(F)F)n2)s1 [Compound 6.31, N-methyl-N-[[5-[5-(trifluoromethyl)-1,2,4-oxadiazol-3-yl]-2-thienyl]methyl]propane-1-sulfonamide] | ≥ 80 | ≥ 80 |
| COCCS(=O)(=O)N(Cc1ccc(-c2noc(C(F)(F)F)n2)s1)C1CC1 [Compound 6.32, N-cyclopropyl-2-methoxy-N-[[5-[5-(trifluoromethyl)-1,2,4-oxadiazol-3-yl]-2-thienyl]methyl]ethanesulfonamide] | ≥ 80 | ≥ 80 |
| O=S(=O)(Cc1ccccc1)N(Cc1ccc(-c2noc(C(F)(F)F)n2)s1)C1CC1 [Compound 6.33, N-cyclopropyl-1-phenyl-N-[[5-[5-(trifluoromethyl)-1,2,4-oxadiazol-3-yl]-2-thienyl]methyl]methanesulfonamide] | ≥ 80 | ≥ 80 |
